Literature values as cited in paper PMC4452912 (Viruses, 2015).

Experiments:
[1] = mouse, in vivo; cited from earlier work
DENV, HCV, and HIV = tested on: DENV, HCV, and HIV; parameters: method as in ref 3 = [3]; conditions: cited from earlier work
DENV-2 = tested on: DENV-2; parameters: method as in ref 16 = [16]; conditions: DENV-2 ADE mouse model; cited from earlier work

SMILES	thymus effect [1]	concentrations required for broad-spectrum antiviral activity in vitro (DENV, HCV, and HIV) [µM]	dose range promoting survival (DENV-2) [mg/kg]
CCCCN1C[C@H](O)[C@@H](O)[C@H](O)[C@H]1CO [NB-DNJ, N-butyl-deoxynojirimycin]	thymus weight loss	> 30	–
COCCCCCCCCCN1C[C@H](O)[C@@H](O)[C@H](O)[C@H]1CO [UV-4]	–	–	10 to 20
